Source: PubChem BioAssay (NCI)
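How tested: cells in 96-well plates exposed to compound for 48 hours at five concentrations. At the GI50, growth is halved. TGI: concentration producing complete growth inhibition.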

Tests used:
Experiment in all cases: inhibition of tumour cell growth, NCI panel, 48 h
786-0 renal = system: 786-0 renal
IGROV1 ovarian = system: IGROV1 ovarian
MALME-3M melanoma = system: MALME-3M melanoma
MOLT-4 leukemia = system: MOLT-4 leukemia
PC-3 prostate = system: PC-3 prostate
SF-268 CNS = system: SF-268 CNS
SF-295 CNS = system: SF-295 CNS
SN12C renal = system: SN12C renal
UO-31 renal = system: UO-31 renal
SR leukemia = system: SR leukemia
SW-620 colon = system: SW-620 colon

| Compound | TGI (786-0 renal) | TGI (IGROV1 ovarian) | TGI (MALME-3M melanoma) | TGI (MOLT-4 leukemia) | TGI (PC-3 prostate) | TGI (SF-268 CNS) | TGI (SF-295 CNS) | TGI (SN12C renal) | TGI (UO-31 renal) | TGI (SR leukemia) | TGI (SW-620 colon) | GI50 (PC-3 prostate) | GI50 (SF-295 CNS) | GI50 (UO-31 renal) |
| --- | --- | --- | --- | --- | --- | --- | --- | --- | --- | --- | --- | --- | --- | --- |
| C=CCN1CCC(OC(=O)C(O)(/C=C\CC)C2CCCC2)CC1 (stereo not drawn) | > 100 µM | > 100 µM | > 100 µM | > 100 µM | > 100 µM | > 100 µM | > 100 µM | > 100 µM | > 100 µM |  |  |  |  |  |
| COc1cc(Cn2c3c(c4c(CN(C)C)c(O)ccc42)C(=O)c2ccccc2C3=O)cc(OC)c1 | 27.6 µM |  | 76.2 µM | 88.9 µM | 35.4 µM | 27.9 µM | 44 µM | 55.1 µM | 27.7 µM | 36.5 µM | 38.5 µM |  |  |  |
| CC(=O)OCC1C(C(C)OC(C)=O)CCC2C1CCC1(C)C(OC(C)=O)CCC21 (stereo not drawn) | 49.5 µM | 42.1 µM | 37 µM | 41.8 µM |  | 52.5 µM | 41.4 µM | 34.8 µM | > 100 µM | > 100 µM | 38.2 µM |  |  |  |
| Cc1ccc2nc3c(C(=O)NCCN(C)C)cccc3cc2c1 |  | 6.5 µM | 4.58 µM |  |  | 2.52 µM | 7.14 µM | 7.06 µM | 2.96 µM |  | 5.45 µM |  |  |  |
| C#CCNC(=O)CCC(N)C(=O)O (stereo not drawn) |  | > 100 µM | > 100 µM | > 100 µM |  | > 100 µM | > 100 µM | > 100 µM | > 100 µM |  | > 100 µM |  |  |  |
| COC1/C=C\C=C(/C)C(=O)NC2=CC(=O)C=C(C2=O)C(OC)C(C)CC(OC)C(OC)C(C)/C=C(/C)C1OC(N)=O (stereo not drawn) |  | 26 µM | 0.826 µM | 1.25 µM |  | 26.6 µM | 35.4 µM | 19 µM | 30 µM |  | 2.8 µM |  |  |  |
| Nc1[nH]c(=O)nc2sc3c(c12)CCCC3 | > 100 µM | > 100 µM | > 100 µM | > 100 µM | > 100 µM | > 100 µM |  | > 100 µM | > 100 µM | > 100 µM | > 100 µM |  |  |  |
| CCN(CC)CCNc1ccc([N+](=O)[O-])c2nc3ccccc3c(N)c12 | 2.04 µM | > 10 µM |  | 2.23 µM | 1.74 µM | 3.79 µM | 1.75 µM | > 10 µM | 5.94 µM | 2.39 µM | 1.91 µM |  |  |  |
| NS(=O)(=O)c1nnc(NC(=O)CCC(=O)O)s1 | > 100 µM |  | > 100 µM | > 100 µM |  | > 100 µM | > 100 µM | > 100 µM | > 100 µM | > 100 µM | > 100 µM |  |  |  |
| CC1=NN(c2nc(N)nc(CS(C)(=O)=O)n2)C(C)(C)C1 | > 100 µM | > 100 µM |  | > 100 µM | > 100 µM | > 100 µM | > 100 µM |  | > 100 µM | > 100 µM | > 100 µM |  |  |  |
| O=C1CCc2c3c(c4c([nH]c5ccccc54)c2CC1)C(=O)NC3=O | > 100 µM | 13.7 µM | 12.6 µM | 4.05 µM | 70.6 µM | > 100 µM | 33.5 µM | > 100 µM | 14.7 µM |  | > 100 µM |  |  |  |
| O=C1CCCCC/C=C2/CC[C@H](Sc3ccccc3)[C@@H]12 | > 100 µM |  | > 100 µM | > 100 µM |  | > 100 µM | > 100 µM | > 100 µM | > 100 µM | > 100 µM | > 100 µM |  |  |  |
| Cn1c(-c2ccccc2)cc(-c2ccc3c(c2)OCO3)c1-c1cccs1 | > 100 µM | > 100 µM |  | > 100 µM | > 100 µM | > 100 µM | > 100 µM | > 100 µM | > 100 µM | > 100 µM | > 100 µM |  |  |  |
| COc1ccc2nc(-c3ccc(OC(=O)N(C)C)cc3)cn2c1 | > 100 µM | > 100 µM | > 100 µM | > 100 µM | > 100 µM | > 100 µM | > 100 µM | > 100 µM |  | > 100 µM | > 100 µM |  |  |  |
| CSc1ccc2c(c1)c(CCN)c(C)n2Cc1ccc(Cl)c(Cl)c1 |  |  |  |  | 3.11 µM |  | 3.22 µM |  | 3.01 µM |  |  | 1.67 µM | 1.69 µM | 1.59 µM |
| NCCCNCCSSCc1ccccc1CSSCCNCCCN |  | > 100 µM | > 100 µM | > 100 µM |  | > 100 µM | > 100 µM | > 100 µM | > 100 µM |  | > 100 µM |  |  |  |
| CSCCC(NC(=O)C(Cc1ccccc1)NC(=O)CNC(=O)CNC(=O)C(N)Cc1ccc(O)cc1)C(=O)O (stereo not drawn) |  | > 100 µM | > 100 µM | > 100 µM |  | > 100 µM | > 100 µM | > 100 µM | > 100 µM |  | > 100 µM |  |  |  |
| CC(=O)OC1C=CC2CCN3C(=O)c4cc5c(cc4[C@H]1C23)OCO5 (stereo partly drawn) | > 100 µM | > 100 µM | > 100 µM | > 100 µM |  | > 100 µM | > 100 µM | > 100 µM | > 100 µM | > 100 µM | > 100 µM |  |  |  |
| COCCO |  | > 100 µM | > 100 µM | > 100 µM |  | > 100 µM | > 100 µM | > 100 µM | > 100 µM |  | > 100 µM |  |  |  |
| COc1cc(N=C(N)N=C(N)N)c2ncccc2c1 | > 100 µM | > 100 µM | > 100 µM |  | > 100 µM | > 100 µM | > 100 µM | > 100 µM | > 100 µM |  | > 100 µM |  |  |  |
| COc1ccc(C2CCc3nc4nc(N)nc(N)c4cc3C2)cc1 (stereo not drawn) | 17 µM | 37.9 µM | > 100 µM | 65.3 µM | > 100 µM | > 100 µM | 89.6 µM | 59.5 µM |  | 67.3 µM | > 100 µM |  |  |  |
| Cc1c2c(c(C)c3c[n+](C)ccc13)Oc1ccccc1O2 | > 100 µM | 50 µM | 19.1 µM | 23.8 µM | > 76.7 µM | 11.8 µM | > 80.4 µM | > 42.4 µM | > 100 µM |  | > 52.8 µM |  |  |  |
| O=C(N=Nc1ccc([N+](=O)[O-])cc1)NNc1ccc([N+](=O)[O-])cc1 | 27 µM | 26.8 µM | 53.1 µM | 40.8 µM | 52 µM | 80.1 µM |  | 40.5 µM | 32.6 µM | 72.6 µM | 45.4 µM |  |  |  |
